Laboratory results from patent US20190212344A1, “BIOMARKERS FOR USE IN DETERMINING RESPONSE TO TREATMENT OF NEURODEGENERATION DISEASE” (The Board of Trustees of the Leland Stanford Junior …, priority 2016, published 2019).
Residues, ends and D or L forms follow the SMILES beside them.

Tested on: R6/2 mice
Experiment: Survival of R6/2 and WT mice during P110 treatment
Format: in vivo, mouse
Settings: 10 P110-treated WT mice, intermittent treatment over 8 weeks
Experimental: All the experiments were in accordance with protocols approved by the Institutional Animal Care and Use Committee of Stanford University and were performed based on the National Institutes of Health Guide for the Care and Use of Laboratory Animals. Hemizygous R6/2 HD mice and their wild-type littermates (WT) were purchased from Jackson Laboratories and shipped to us at 5 weeks of age. The animals used in the P110 treatment study were implanted with a 28-day osmotic pump (Alzet, Cupertino Calif.) containing TAT47-57 carrier control peptide or P110-TAT47-57 (P110 peptide), which delivered to the mice at a rate of 3 mg/Kg/day, as described before. The first pump was implanted at 5 weeks of age and replaced once, after 4 weeks. For the intermittent treatment study, TAT or P110 were delivered as above, using a 1-week pump. After 3 weeks with no treatment, a new pump was implanted for another week of treatment, and mice were sacrificed three weeks later, at the age of 13 weeks.
The overall survival during the study period was recorded and the remaining mice were sacrificed when they reached 13 weeks. […]
The results are presented as mean±SE. Statistical analysis was assessed by unpaired Student's t test and 1-way ANOVA using GraphPad Prism (GraphPad Software, Inc, La Jolla, Calif.). […]

Question: `CC(C)C[C@H](NC(=O)[C@H](CC(=O)O)NC(=O)CNC(=O)CNC(=O)[C@H](CCCNC(=N)N)NC(=O)[C@H](CCCNC(=N)N)NC(=O)[C@H](CCCNC(=N)N)NC(=O)[C@H](CCC(N)=O)NC(=O)[C@H](CCCNC(=N)N)NC(=O)[C@H](CCCNC(=N)N)NC(=O)[C@H](CCCCN)NC(=O)[C@H](CCCCN)NC(=O)[C@H](CCCNC(=N)N)NC(=O)CNC(=O)[C@@H](N)Cc1ccc(O)cc1)C(=O)N[C@@H](CC(C)C)C(=O)N1CCC[C@H]1C(=O)N[C@@H](CCCNC(=N)N)C(=O)NCC(=O)N[C@@H](CO)C(=O)O` [P110] (H-YGRKKRRQRRRGGDLLPRGS-OH) was tested. Which “death in WT mice” value did it give?
Answer: The value was “no death”.
